# Experimental data published in ChEMBL document CHEMBL5042547, “Activable Targeted Protein Degradation Platform Based on Light-triggered Singlet Oxygen” (J Med Chem, 2022).
# Calls of active or inactive are those of the source. The rule behind the calls is not given here.
# Experiments:
# [1] = system: MCF7; assay: Induction of cell cycle arrest in human MCF7 cells assessed as accumulation of cells at G1 phase at 1 uM after irradiation for 30 mins by propidium iodide based flow cytometry analysis; type: functional
# [2] = biological target: T1, Estrogen receptor (Homo sapiens) (UniProt P03372); assay: Induction of degradation of human ERalpha in human MCF7 cells at 0.01 to 1 uM incubated for 6 hrs followed by irradiated light of 460 nm for 45 mins measured after 3 hrs by immunoblot analysis; type: cell-based; conditions: dose 0.01-1 µM, time 9.0 hrs
# T1 sequence (whole entry): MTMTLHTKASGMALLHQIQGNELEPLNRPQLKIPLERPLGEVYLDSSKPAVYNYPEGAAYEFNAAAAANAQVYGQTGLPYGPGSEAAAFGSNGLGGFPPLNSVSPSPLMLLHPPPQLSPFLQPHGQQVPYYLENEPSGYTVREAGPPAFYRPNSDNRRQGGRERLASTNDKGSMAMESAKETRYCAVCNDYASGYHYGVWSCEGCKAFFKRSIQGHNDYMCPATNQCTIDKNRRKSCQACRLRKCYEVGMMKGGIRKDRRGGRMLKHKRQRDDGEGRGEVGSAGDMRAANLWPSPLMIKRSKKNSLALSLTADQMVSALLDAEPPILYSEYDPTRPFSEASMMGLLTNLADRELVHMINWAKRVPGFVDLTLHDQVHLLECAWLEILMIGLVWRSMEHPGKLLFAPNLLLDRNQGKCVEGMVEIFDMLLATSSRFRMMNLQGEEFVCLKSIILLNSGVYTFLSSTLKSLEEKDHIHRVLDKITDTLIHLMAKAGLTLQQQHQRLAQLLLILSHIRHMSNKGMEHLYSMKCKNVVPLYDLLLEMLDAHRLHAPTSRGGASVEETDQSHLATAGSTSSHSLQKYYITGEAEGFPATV
# [3] = system: MCF7; assay: Induction of apoptosis in human MCF7 cells at 1 uM after irradiation for 30 mins annexin V-FITC/PI double staining method; type: functional, cell-based
# [4] = system: MCF7; assay: Antiproliferative activity against human MCF7 cells assessed as cell viability at irradiation for 30 mins daily for 3 days; type: functional, cell-based; conditions: MCF7, light or radiation study
# [5] = system: MCF7; assay: Induction of cell cycle arrest in human MCF7 cells assessed as decrease of cells at S phase after irradiation by propidium iodide based flow cytometry analysis; type: functional; conditions: time 15-45 min, TDE = time-dependent effect
# [6] = biological target: T1, Estrogen receptor (Homo sapiens); assay: Induction of degradation of human ERalpha in MCF7 cells assessed as ERalpha level at 0.1 uM incubated for 6 hrs followed by irradiation for 30 min measured after 16 hrs; type: cell-based; conditions: time 22.5 hrs
# [7] = system: MCF7; assay: Induction of cell cycle arrest in human MCF7 cells assessed as transition of cells from G1 to S phase after irradiation measured after 24 hrs by propidium iodide based flow cytometry analysis; type: functional
# [8] = system: MCF7; assay: Induction of cell cycle arrest in human MCF7 cells assessed as accumulation of cells at G1 phase after irradiation by propidium iodide based flow cytometry analysis; type: functional; conditions: time 15-45 min, TDE = time-dependent effect
# [9] = system: MCF7; assay: Induction of cell cycle arrest in human MCF7 cells assessed accumulation of cells at G1 phase after irradiation measured after 16 hrs by propidium iodide based flow cytometry analysis; type: functional
# [10] = system: MCF7; assay: Induction of apoptosis in human MCF7 cells assessed as late apoptotic cells at 0.01 to 1 uM irradiated 30 mins for 3 days by annexin V-FITC/PI double staining method; type: functional, cell-based; conditions: dose 0.01-1 µM
# [11] = system: MCF7; assay: Antiproliferative activity against human MCF7 cells assessed as cell viability at irradiation for 15 mins daily for 3 days; type: functional, cell-based; conditions: MCF7, light or radiation study
# [12] = system: MCF7; assay: Antiproliferative activity against human MCF7 cells in presence of glutathione irradiated daily; type: functional, cell-based
# [13] = biological target: T1, Estrogen receptor (Homo sapiens); assay: Induction of degradation of human ERalpha in human MCF7 cells by generation of singlet oxygen at 1 uM in presence of glutathione by fluorescent probe based DCFH-DA assay; type: cell-based
# [14] = biological target: T1, Estrogen receptor (Homo sapiens); assay: Induction of degradation of human ERalpha irradiated with 460 +/- 10 nm LED light for 15 mins by gel electrophoresis
# [15] = biological target: T1, Estrogen receptor (Homo sapiens); assay: Induction of human ERalpha degradation in human MCF7 cells assessed as increase in response of cell to ABT-263-mediated Bcl-2 inhibition; type: cell-based
# [16] = biological target: T1, Estrogen receptor (Homo sapiens); assay: Induction of human ERalpha degradation-mediated apoptosis in human MCF7 cells assessed as increase in expression level of Bak at 0.01 uM by ELISA analysis; type: cell-based
# [17] = biological target: T2, Estrogen receptor (Homo sapiens, UniProt P03372); assay: Induction of degradation of human ERalpha in MCF7 cells irradiated with 460 light for 30 mins; type: cell-based
# T2 sequence (P03372 whole entry): T1 sequence (whole entry)
# [18] = system: MCF7; assay: Antiproliferative activity against human MCF7 cells under dark condition; type: functional, cell-based
# [19] = biological target: T1, Estrogen receptor (Homo sapiens); assay: Induction of human ERalpha degradation-mediated apoptosis in human MCF7 cells assessed as increase in expression level of p53 at 0.01 uM by ELISA analysis; type: cell-based
# [20] = biological target: T1, Estrogen receptor (Homo sapiens); assay: Induction of degradation of human ERalpha in MCF7 cells at 0.01 to 0.1 uM irradiated with 460 light for 15 to 60 mins; type: cell-based; conditions: dose 0.01-0.1 µM, time 15-60 min
# [21] = biological target: T1, Estrogen receptor (Homo sapiens); assay: Induction of human ERalpha degradation-mediated apoptosis in human MCF7 cells assessed as loss of mitochondrial membrane potential at 0.01 uM irradiated for 45 mins by TMRM fluorescence based cytometric analysis; type: cell-based
# [22] = biological target: T1, Estrogen receptor (Homo sapiens); assay: Induction of human ERalpha degradation-mediated apoptosis in human MCF7 cells assessed as increase in expression level of Bcl-2 at 0.01 uM irradiated for 45 min by ELISA analysis; type: cell-based
# [23] = biological target: T1, Estrogen receptor (Homo sapiens); assay: Induction of degradation of human ERalpha by generation of singlet oxygen incubated for 3 hrs followed by irradiated with 460 +/- 10 nm LED light for 15 mins by circular dichroism spectroscopy; conditions: time 195.0 min
# [24] = biological target: T1, Estrogen receptor (Homo sapiens); assay: Induction of degradation of human ERalpha in human MCF7 cells at 1 uM incubated for 1 to 6 hrs followed by irradiated light of 460 nm for 30 mins measured after 3 hrs by immunoblot analysis; type: cell-based; conditions: time 4.5-9.5 hrs
# [25] = Drug uptake in human MCF7 cells assessed as peak mean fluorescence intensity measured after 6 to 12hrs by cytometric analysis; type: ADME, cell-based
# [26] = biological target: T1, Estrogen receptor (Homo sapiens); assay: Binding affinity to human ERalpha assessed as change in entropy by isothermal titration calorimetry
# [27] = system: MCF7; assay: Induction of cell cycle arrest in human MCF7 cells assessed as cells at S phase after irradiation measured after 16 hrs by propidium iodide based flow cytometry analysis; type: functional
# [28] = biological target: T1, Estrogen receptor (Homo sapiens); assay: Induction of degradation of human ERalpha by generation of singlet oxygen incubated for 3 hrs followed by irradiated with 460 +/- 10 nm LED light for 30 mins by circular dichroism spectroscopy; conditions: time 210.0 min
# [29] = biological target: T1, Estrogen receptor (Homo sapiens); assay: Induction of degradation of human ERalpha in MCF7 cells at 0.1 uM incubated for 6 hrs followed by irradiation for 30 min measured after 2 hrs; type: cell-based; conditions: time 8.5 hrs
# [30] = system: MCF7; assay: Antiproliferative activity against human MCF7 cells assessed as cell viability at irradiation for 45 mins daily for 3 days; type: functional, cell-based; conditions: MCF7, light or radiation study
# [31] = biological target: T2, Estrogen receptor; assay: Induction of degradation of human ERalpha in MCF7 cells irradiated with 460 light for 45 mins; type: cell-based
# [32] = biological target: T2, Estrogen receptor; assay: Binding affinity to human ERalpha by competitive fluorometric receptor binding assay
# [33] = biological target: T1, Estrogen receptor (Homo sapiens); assay: Induction of degradation of human ERalpha in human MCF7 cells at 1 uM incubated for 1 to 12 hrs in dark after 3 hrs by immunoblot analysis; type: cell-based; conditions: time 4-15 hrs
# [34] = biological target: T1, Estrogen receptor (Homo sapiens); assay: Induction of degradation of human ERalpha in MCF7 cells at 1 uM incubated for 6 hrs followed by irradiation for 30 min measured for 24 hrs; type: cell-based; conditions: time 30.5 hrs
# [35] = system: MCF7; assay: Antiproliferative activity against human MCF7 cells assessed as cell viability at irradiation for 15 mins measured after 72 hrs; type: functional, cell-based; conditions: MCF7, light or radiation study
# [36] = system: MCF-10A; assay: Cytotoxicity against human MCF-10A cells upto 100 uM under dark condition; type: toxicity, cell-based
# [37] = system: MCF7; assay: Antiproliferative activity against human MCF7 cells assessed as cell viability at irradiation for 45 mins measured after 72 hrs; type: functional, cell-based; conditions: MCF7, light or radiation study
# [38] = system: MCF7; assay: Antiproliferative activity against human MCF7 cells assessed as cell viability at irradiation for 30 mins measured after 72 hrs; type: functional, cell-based; conditions: MCF7, light or radiation study
# [39] = system: MCF7; assay: Antiproliferative activity against human MCF7 cells in presence of N-acetyl-L-cysteine irradiated daily; type: functional, cell-based
# [40] = biological target: T1, Estrogen receptor (Homo sapiens); assay: Induction of degradation of human ERalpha in human MCF7 cells assessed as decrease in expression of c-MYC gene at 24 hrs; type: cell-based
# [41] = biological target: T1, Estrogen receptor (Homo sapiens); assay: Induction of degradation of human ERalpha in human MCF7 cells by generation of singlet oxygen at 1 uM in presence of N-acetyl-L-cysteine by fluorescent probe based DCFH-DA assay; type: cell-based
# [42] = biological target: T1, Estrogen receptor (Homo sapiens); assay: Induction of degradation of human ERalpha in MCF7 cells at 0.1 uM incubated for 6 hrs followed by irradiation for 30 min measured after 2 to 8 hrs; type: cell-based; conditions: time 8.5-14.5 hrs, TDE = time-dependent effect
# [43] = biological target: T1, Estrogen receptor (Homo sapiens); assay: Induction of degradation of human ERalpha irradiated with 460 +/- 10 nm LED light for 30 to 45 mins by gel electrophoresis; conditions: time 30-45 min
# [44] = biological target: T1, Estrogen receptor (Homo sapiens); assay: Induction of degradation of human ERalpha in human MCF7 cells by generation of singlet oxygen at 1 uM in presence of dithiothreitol by fluorescent probe based DCFH-DA assay; type: cell-based
# [45] = system: MCF7; assay: Antiproliferative activity against human MCF7 cells in presence of dithiothreitol irradiated daily; type: functional, cell-based
# [46] = system: MCF-10A; assay: Cytotoxicity against human MCF-10A cells upto 100 uM assessed as cell viability at irradiation for 15 to 45 mins measured after 72 hrs; type: toxicity, cell-based; conditions: time 72.25-72.75 hrs
# [47] = biological target: T1, Estrogen receptor (Homo sapiens); assay: Induction of human ERalpha degradation-mediated apoptosis in human MCF7 cells assessed as increase in expression level of Bax at 0.01 uM by ELISA analysis; type: cell-based
# [48] = system: MCF7; assay: Induction of cell cycle arrest in human MCF7 cells assessed as decrease of cells at G2/M phase after irradiation by propidium iodide based flow cytometry analysis; type: functional; conditions: time 15-45 min, TDE = time-dependent effect
# [49] = biological target: T1, Estrogen receptor (Homo sapiens); assay: Induction of human ERalpha degradation-mediated apoptosis in human MCF7 cells assessed as increase in cytochrome c release from mitochondria at 0.01 uM irradiated for 45 mins by ELISA analysis
# [50] = biological target: T1, Estrogen receptor (Homo sapiens); assay: Binding affinity to human ERalpha assessed as change in enthalpy by isothermal titration calorimetry
# [51] = biological target: T1, Estrogen receptor (Homo sapiens); assay: Induction of degradation of human ERalpha in human MCF7 cells assessed as decrease in expression of cyclin D1 gene at 24 hrs; type: cell-based
structure (smiles),measurement,setting,value
Brc1ccc(-c2ccc(N(c3ccccc3)c3ccccc3)cc2)c2nsnc12,Activity,[1],inactive
same,Activity,[2],inactive
same,Activity,[3],inactive
C[C@]12CC[C@@H]3c4ccc(O)cc4CC[C@H]3[C@@H]1CC[C@@]2(O)C#Cc1ccc(-c2ccc(N(c3ccccc3)c3ccccc3)cc2)c2nsnc12,IC50,[4],110 nM
same,Activity,[5],Tde
same,Activity,[6],90%
same,Activity,[7],Active
same,Activity,[8],Tde
same,Activity,[9],Active
same,Activity,[10],Active
same,IC50,[11],3.5 µM
same,Activity,[12],inactive
same,Activity,[13],inactive
same,Activity,[14],Active
same,Activity,[15],Active
same,Activity,[16],Active
same,EC50,[17],17 µM
same,Activity,[18],inactive
same,Activity,[19],Active
same,Activity,[20],Active
same,Activity,[21],Active
same,Activity,[22],inactive
same,Activity,[23],Active
same,Activity,[24],Active
same,Drug uptake,[25],Active
same,deltaS,[26],52.2 J/mol/K
same,Activity,[27],inactive
same,Activity,[28],Active
same,Activity,[29],Active
same,IC50,[30],22 nM
same,EC50,[31],500 nM
same,Ki,[32],72.8 nM
same,Activity,[33],Active
same,Activity,[34],Active
same,IC50,[35],8.9 µM
same,Activity,[36],Non-Toxic
same,IC50,[37],5.9 µM
same,IC50,[38],6.1 µM
same,Activity,[39],inactive
same,Activity,[40],Active
same,Activity,[41],inactive
same,Activity,[42],Tde
same,Activity,[43],Active
same,Activity,[44],inactive
same,Activity,[45],inactive
same,Activity,[46],Non-Toxic
same,Activity,[47],Active
same,Activity,[48],Tde
same,Activity,[49],Active
same,deltaH,[50],-18.4 kJ/mol
same,Activity,[51],Active
